Measured values reported in ChEMBL document CHEMBL2094269, “WEHI/Eskitis Trypanosoma b. brucei screening data”.

Columns and labels:
[1] = system: Trypanosoma brucei brucei; assay: microbe, parasite or virus in culture; type: functional, organism-based, STIB 795; conditions: Trypanosoma brucei, STIB 795
Description: DNDI: Inhibition of Human African Trypanosomiasis (HAT), STIB 795, in vitro

[2] = DNDI: Cytotoxicity against human MRC-5 lung fibroblast cells.; conditions: IC50

SMILES | IC50 [1] | IC50 [2]
CCN1C=Cc2ccccc2/C1=C\c1ccc2ccccc2[n+]1CC | 0.086 µM | > 4.17 µM
N=C(NOC(=O)N1CCOCC1)c1ccc(Br)cc1 | 0.748 µM | > 20.8 µM
CCOC(=O)c1ccc(Nc2nnc(C(C)(C)C)c(O)n2)cc1 | 10.2 µM | > 41.7 µM
Cc1cc(NCCN2CCOCC2)c2ccc3ccccc3c2n1 | 4.87 µM | > 20.8 µM
CC(C)(C)c1ccc(OCCCCCCN2CCNCC2)cc1 | 0.734 µM | > 20.8 µM
CCN(CC)CCn1nc2c3c(cccc3c1=O)-c1ccccc1-2 | 1.58 µM | 1.46 µM
CCCC(=O)Nc1ccc(Cl)c(-c2nc3ncccc3o2)c1 | 0.851 µM | > 41.7 µM
NCC12CC3CC(C1)CC(c1ccc(Br)cc1)(C3)C2 | 0.687 µM | 6.72 µM
Cc1ccccc1C(O)(Cc1ccccc1)C1CN2CCC1CC2 (stereo not given) | 4.69 µM | > 4.17 µM
COc1ccc(CNCCc2c[nH]c3ccccc23)c(OC)c1C | 5.26 µM | > 20.8 µM
COc1ccc(C(=O)O/N=C(\N)Cc2cccs2)cc1OC | 1.61 µM | > 20.8 µM
CCN(CC)c1ccc(/C=N/NC(=O)c2cccs2)c(O)c1 | 12.6 µM | > 41.7 µM
Cc1ccccc1/N=N/C(=N\Nc1ccccc1)c1ccccc1 | 1.64 µM | > 41.7 µM
O=C(NCCCN1CCCC1)c1ccc(-c2ccccc2)s1 | 5.51 µM | > 20.8 µM
Cc1cc(C)c2nc(C)cc(Nc3ccc(O)cc3)c2c1 | 2.95 µM | > 20.8 µM
Cc1cc(C)c2nc(C)cc(Nc3cccc(O)c3)c2c1 | 4.93 µM | > 20.8 µM
CCCCC1=NN(C(=O)c2ccccn2)C(O)(C(F)(F)F)C1 (stereo not given) | 5.4 µM | > 20.8 µM
Oc1c(/N=N/c2ccc3cccc(O)c3n2)ccc2ccccc12 | 3.87 µM | > 20.8 µM
CC(C)NCC(O)COc1cc2ccsc2c2ccccc12 (stereo not given) | 1.54 µM | 7.53 µM
O=C(Nc1c2ccccc2nc2ccccc12)c1ccccc1F | 5.31 µM | > 4.17 µM
CC(C)OCc1cc(CN2CCOCC2)c(O)c2ncccc12 | 0.498 µM | 0.91 µM
Clc1ccc(OCCCCCN2CCNCC2)c(Cl)c1 | 3.57 µM | > 41.7 µM
Cn1c(-c2cccnc2)nn(C2CC(=O)C3OCC2O3)c1=S (stereo not given) | 2.32 µM | > 20.8 µM
N/C(Cc1cccs1)=N\OC(=O)C12CC3CC(CC(C3)C1)C2 | 0.125 µM | > 20.8 µM

SMILES | IC50 [1] | IC50 [2]
CC[n+]1c(/C=C/c2ccc(N(C)C)cc2)ccn1-c1ccccc1 | 0.536 µM | > 20.8 µM
C=CCc1ccc(OCCCCCN2CCNCC2)c(OC)c1 | 3.19 µM | > 41.7 µM
C=CCNCCCCOc1ccc(Br)cc1Cl | 4.95 µM | > 41.7 µM
Cn1ccnc1Sc1cnn(-c2ccccc2)c(=O)c1Cl | 5.27 µM | > 20.8 µM
N/C(=N\OC(=O)c1ccccc1Br)c1ccccc1 | 2.66 µM | > 20.8 µM
Clc1ccc(CCNCc2c[nH]c3ccccc23)c(Cl)c1 | 5.33 µM | > 20.8 µM
Cc1nn2c(=O)cc(-c3ccc(F)cc3)[nH]c2c1-c1ccccc1 | 0.913 µM | 2.42 µM
CC(C)N1C/C(=C/c2ccccn2)C(=O)/C(=C/c2ccccn2)C1 | 0.236 µM | 5.78 µM
CC(C)(C)c1ccc(CN2CCCn3c2nc2ccccc23)cc1 | 5.62 µM | > 20.8 µM
Cc1cccc(CN2CCN(Cc3c[nH]c4ccccc34)CC2)c1 | 5.24 µM | > 20.8 µM
CCOc1cc(CNCCc2cccc(Cl)c2)ccc1OC | 4.84 µM | > 20.8 µM
O=C(NNC(=O)c1ccccn1)c1cccc(Br)c1 | 1.74 µM | > 4.17 µM
COc1ccc(C/C(N)=N/OC(=O)c2cccs2)cc1OC | 4.78 µM | > 41.7 µM
Cc1cc(C)c2nc(C)cc(Nc3ccc4c(c3)OCCO4)c2c1 | 3.91 µM | > 41.7 µM
Cc1c(-c2cccc3c2OC(C)(C)C3)ccc2nc(N)nc(N)c12 | ≤ 1.95 µM | > 4.17 µM
CC(C)(C)OC(=O)N/N=C\c1ccc(-c2cccc(Cl)c2)o1 | 7.35 µM | > 41.7 µM
Nc1nc(NN2CCCCC2)nc(-c2cc(Cl)ccc2O)n1 | 4.15 µM | > 20.8 µM
CCc1cc(C2CCCN2C(=O)c2c(F)cccc2Cl)on1 (stereo not given) | 5.12 µM | > 41.7 µM
Oc1c(Br)cc(CN2CCOCC2)c2cccnc12 | 1.1 µM | > 20.8 µM
COC(=O)c1cn(NC(=O)c2ccccn2)c(=O)c2ccccc12 | 0.63 µM | > 10.4 µM
CC(C)(C)c1ccc(Cn2c(=N)n(CCO)c3ccccc32)cc1 | 4.96 µM | > 41.7 µM
Cc1ccccc1OCCn1c(=N)n(CC(C)C)c2ccccc21 | 5.64 µM | > 20.8 µM
Cc1nnc(N/N=C/c2cc(Br)ccc2O)nc1O | 3 µM | 3.41 µM
CC(C)CC(=O)/C(=C/c1ccc(Cl)cc1Cl)n1cncn1 | 2.27 µM | > 20.8 µM

SMILES | IC50 [1] | IC50 [2]
CC1(C)CC(=O)C/C(=N/NC(=O)c2cc3ccccc3cc2O)C1 | < 0.1 µM | > 41.7 µM
COc1cccc(NC(=O)CSc2cccc3cccnc23)c1 | 5.79 µM | > 41.7 µM
N#Cc1ccc(-c2ccncc2)nc1SCCN1CCCCC1 | 7.34 µM | > 41.7 µM
O=C(N/N=C/c1ccc(-c2ccccc2Cl)o1)c1ccccc1 | < 0.004 µM | > 41.7 µM
O=C(N/N=C/c1ccc(Cl)cc1Cl)c1ccc(O)c(O)c1 | 1.54 µM | > 20.8 µM
CCn1nc(/C=C/c2ccccc2)[n+]([O-])c2c(=O)n(C)c(=O)nc1-2 | 3.67 µM | > 20.8 µM
CNCCC(Sc1ccc(C(F)(F)F)cc1)c1ccccc1 (stereo not given) | 1.9 µM | > 20.8 µM
CN1/C(=C/C=C/c2ccc3ccccc3[n+]2C)C=Cc2ccccc21 | 0.077 µM | > 10.4 µM
CC1CCC(C(C)C)C(OCC(O)CN2C(C)CCCC2C)C1 (stereo not given) | 3.51 µM | > 20.8 µM
CCOC(=O)N/N=C\c1ccc(-c2cccc(C(F)(F)F)c2)o1 | 3.19 µM | > 41.7 µM
O=c1cc(OC2=CS(=O)(=O)c3ccccc32)c2ccccc2o1 | 3.59 µM | 5.99 µM
O=C(COc1ccccc1)N/N=C/c1sc2ccccc2c1O | 7.88 µM | > 20.8 µM
c1ccc2c(OCCCCCCNCC3CCCO3)cccc2c1 (stereo not given) | 5.25 µM | > 41.7 µM
CC(C)NC[C@]1(C)CCC[C@]2(C)c3ccc(C(C)C)cc3CC[C@@H]12 | 0.47 µM | > 41.7 µM
O=C(N/N=C/c1sc2ccccc2c1O)c1ccc(O)cc1O | 4.44 µM | > 4.17 µM
NS(=O)(=O)c1ccc(/N=N/c2ccc(O)c3ncccc23)cc1 | 4.78 µM | > 20.8 µM
CCN(CC)c1ccc(/C=N\NC(=O)Cc2cccn2C)c(O)c1 | 3.62 µM | > 4.17 µM
Clc1cc2c(c3ncccc13)OCN(CCC1=CCCCC1)C2 | 1.05 µM | > 20.8 µM
CC(C)(C)c1ccc2c(c1)OCCOCCOCCOCCO2 | 5.26 µM | > 20.8 µM
CC(C)Nc1ccc(Nc2ccnc3cc4ccccc4cc23)cc1 | 2.58 µM | > 41.7 µM
Cc1cc(NCCN2CCCCC2)c2ccc3ccccc3c2n1 | 2.43 µM | > 20.8 µM
Cc1ccc(C(OCC(C)(C)C[N+](C)(C)C)c2ccccc2)cc1 (stereo not given) | 6.71 µM | > 41.7 µM
